Test results: US6313171A, “Method for preventing or treating elevated blood lipid level-related diseases by administering cinnamic acid derivatives” (Korea Research Institute of Bioscience & Biotechnology, priority 1998, dated 2001)

Key:
[1] = Plasma total cholesterol and HDL-cholesterol of rats fed a high-cholesterol diet; type: in vivo, rat (Sprague-Dawley); conditions: for HDL-C/TC ratio / HDL-C (HDL-cholesterol) / TC (Total cholesterol): 0.1% in 1% cholesterol diet, six weeks; for HDL-C/TC ratio: Control 28, listed as head is [formula]; for HDL-C (HDL-cholesterol): Control 38 ± 2; for TC (Total cholesterol): Control 135 ± 6; for increase of HDL-C/TC ratio / reduction of total plasma cholesterol level: as compared with control group
From the text: 40 three-week-old white Sprague-Dawley rats (Taihan laboratory animal center, Korea), each weighing about 90 to 110 g, were evenly divided into four dietary groups by a randomized block design. The rats of the four groups were fed with four different high-cholesterol diets, i.e., AIN-76 laboratory animal diet (ICN Biochemicals, Cleveland, Ohio, U.S.A.) containing 1% cholesterol (Control group); 1% cholesterol plus 0.1% 4-hydroxycinnamic acid (4-hydroxycinnamic acid group); 1% cholesterol plus 0.1% 3,4-dihydroxycinnamic acid (3,4-dihydroxycinnamic acid group); and 1% cholesterol plus 0.1% 3,4-dihydroxyhydrocinnamic acid (3,4-dihydroxyhydrocinnamic acid group), respectively.
The rats were allowed to feed freely on the specified diet together with water for six weeks, the ingestion amount was recorded daily and the rats were weighed every 7 days, and then the record was analyzed.
The effects of administering cinnamic acid derivatives to rats on the plasma cholesterol and neutral lipid contents were determined as follows.
The rats of the four dietary groups obtained in Step 1 were sacrificed and blood samples were taken therefrom. The blood was allowed to stand for 2 hours and centrifuged at 3,000 rpm for 15 minutes and the supernatant was separated and stored in a deep freezer before use. The chemical analysis of blood was carried out by employing a blood chemical analyzer (CIBA Corning 550 Express, USA) to determine the changes in total cholesterol and HDL-cholesterol levels.

HMG-CoA reductase = biological target: T1, HMG-CoA reductase (Rattus norvegicus, UniProt P51639); test: HMG-CoA reductase activity assay, liver microsomes of the fed rats; type: biochemical; conditions: liver microsomes of rats fed 0.1% in 1% cholesterol diet; Control 0
T1 construct: the supernatant was ultracentrifuged at 100,000×g for 60 minutes to obtain microsomal precipitates; from tissue; host or cells: rat liver microsomes
T1 sequence (P51639 1-887): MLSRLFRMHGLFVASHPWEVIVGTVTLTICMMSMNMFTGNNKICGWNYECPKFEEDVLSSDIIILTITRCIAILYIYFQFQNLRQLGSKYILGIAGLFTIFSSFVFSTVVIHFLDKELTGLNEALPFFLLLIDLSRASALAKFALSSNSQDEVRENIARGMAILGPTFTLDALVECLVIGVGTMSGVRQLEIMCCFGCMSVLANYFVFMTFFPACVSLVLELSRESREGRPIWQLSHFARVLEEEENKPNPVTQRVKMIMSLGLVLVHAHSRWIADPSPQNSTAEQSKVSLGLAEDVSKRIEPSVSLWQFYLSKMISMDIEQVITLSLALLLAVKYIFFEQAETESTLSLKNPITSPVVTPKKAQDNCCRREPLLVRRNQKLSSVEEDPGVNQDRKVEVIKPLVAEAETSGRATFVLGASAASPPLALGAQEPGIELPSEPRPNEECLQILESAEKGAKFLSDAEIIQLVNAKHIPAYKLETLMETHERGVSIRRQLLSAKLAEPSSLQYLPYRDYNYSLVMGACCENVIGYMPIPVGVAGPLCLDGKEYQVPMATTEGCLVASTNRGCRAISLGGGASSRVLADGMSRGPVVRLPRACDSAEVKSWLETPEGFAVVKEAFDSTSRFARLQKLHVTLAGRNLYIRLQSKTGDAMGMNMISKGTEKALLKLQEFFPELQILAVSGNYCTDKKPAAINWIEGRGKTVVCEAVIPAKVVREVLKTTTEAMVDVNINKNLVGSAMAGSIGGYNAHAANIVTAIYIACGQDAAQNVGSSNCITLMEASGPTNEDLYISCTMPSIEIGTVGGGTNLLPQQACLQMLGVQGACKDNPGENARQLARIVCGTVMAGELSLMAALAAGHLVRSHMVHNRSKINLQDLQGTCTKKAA
Procedure: In order to determine the activity of HMG-CoA reductase, Hulcher's method was employed after some modification (see J. Lipid Res., 14, 625-641(1973)). In this method, the concentration of the coenzyme-A (CoA-SH), which is produced when HMG-CoA is reduced to a mevalonate salt by the action of HMG-CoA reductase, is determined by spectroscopy and the activity of HMG-CoA reductase is calculated therefrom.
3 g of liver tissue taken from each group of rats of Example 2 was washed successively with 100 ml of a cold saline (0.15 M NaCl) and 100 ml of a cold buffer solution A (0.1 M triethanolamine, HCl/0.2 M EDTA/2 mM dithiothreitol (DTT)). The cold buffer solution A was added to the liver tissue in an amount of 2 ml per 1 g of the liver tissue and the mixture was homogenized with a homogenizer. The homogenate was centrifuged at 15,000×g for 15 minutes, and then, the supernatant was ultracentrifuged at 100,000×g for 60 minutes to obtain microsomal precipitates. The precipitates thus obtained was washed with a cold buffer solution A and kept in a 1.5 ml tube at -70° C.
The reaction substrates used in HMG-CoA reductase activity assay were as follows: i) buffer solution B: 0.1 M triethanolamine, HCl/0.02 M EDTA (pH 7.4), ii) HMG-CoA solution: 150 μmoles/culture medium, and iii) NADPH solution: 2 μmoles/culture medium.
The suspension (microsome) was mixed with the reaction substrate and the mixture was placed in a centrifugation tube and reacted at 37° C. for 30 minutes. […]
Then, the reactant was mixed with 20 μl of DTNB buffer solution (3 mM DTNB/0.1 M triethanolamine/0.2 M EDTA, pH 7.4) and the absorbance of the mixture was determined at 412 nm to calculate the amount of CoA-SH (activity of HMG-CoA reductase).
The extent of inhibition of HMG-CoA reductase activity by cinnamic acid derivatives was calculated based on the above result.

Row | Compound | HDL-C/TC ratio [1] | HDL-C (HDL-cholesterol) [1] | TC (Total cholesterol) [1] | increase of HDL-C/TC ratio [1] | reduction of total plasma cholesterol level [1] | Inhibition of HMG-CoA reductase activity (HMG-CoA reductase)
1 | O=C(O)/C=C/c1ccc(O)c(O)c1 [3,4-dihydroxycinnamic acid] | 33 | 39 ± 3 mg/dL | 118 ± 6 mg/dL | 18% | 13% | 44%
2 | O=C(O)/C=C/c1ccc(O)cc1 [4-Hydroxycinnamic acid, 4-hydroxycinnamic acid] | 56 | 57 ± 3 mg/dL | 102 ± 6 mg/dL | 100% | 24% | 31%
3 | O=C(O)CCc1ccc(O)c(O)c1 [3,4-dihydroxyhydrocinnamic acid] | 35 | 45 ± 4 mg/dL | 127 ± 4 mg/dL | 25% | 6% | 70%
